According to the supplement of paper PMC10307832:

Legend:
Test in all cases: relative viability (nuclei count vs DMSO), 5 days (fraction); higher = more cells survive
[1] = compound: C[C@@H](N)c1ccc(C(=O)Nc2ccnc3[nH]ccc23)cc1 + CC1(C)CCC(c2ccc(Cl)cc2)=C(CN2CCN(c3ccc(C(=O)NS(=O)(=O)c4ccc(N[C@H](CCN5CCOCC5)CSc5ccccc5)c(S(=O)(=O)C(F)(F)F)c4)cc3)CC2)C1 [Navitoclax] (partner 0.5 µM)
Method in brief: (§1)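 Cells from lung cancer lines were seeded into 1536-well plates and, one day later, dosed by pin tool. Treatments were either a single drug or a fixed dose of an anchor drug with five library-drug doses (not always all listed) in √10 steps. After 5 days, nuclei were stained in a one-step fixation (final 0.05% Triton X-100, 1% formaldehyde, 1 ug/ml Hoechst) and counted on 4× images, and relative viability is the treated-to-vehicle nuclei ratio, as the median of duplicate plates.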

[2] = compound: C1CNCCC1C2=CC(=NN2)C3=CC=NC=C3 + CC1(C)CCC(c2ccc(Cl)cc2)=C(CN2CCN(c3ccc(C(=O)NS(=O)(=O)c4ccc(N[C@H](CCN5CCOCC5)CSc5ccccc5)c(S(=O)(=O)C(F)(F)F)c4)cc3)CC2)C1 [Navitoclax] (partner 0.5 µM)
Method in brief: as §1

[3] = compound: C[C@@H](N)c1ccc(C(=O)Nc2ccnc3[nH]ccc23)cc1 + CC(=O)c1c(C)c2cnc(Nc3ccc(N4CCNCC4)cn3)nc2n(C2CCCC2)c1=O [Palbociclib] (partner 0.5 µM)
Method in brief: as §1

Tanzisertib + Pemetrexed = compound: O[C@H]1CC[C@H](Nc2ncc3nc(Nc4c(F)cc(F)cc4F)n([C@H]4CCOC4)c3n2)CC1 [Tanzisertib] + Nc1nc2[nH]cc(CCc3ccc(C(=O)N[C@@H](CCC(=O)O)C(=O)O)cc3)c2c(=O)[nH]1 [Pemetrexed] (partner 0.2 µM)
Method in brief: as §1

| Cell Line | relative viability ([1]; first compound 0.04 µM) | relative viability ([1]; first compound 0.1265 µM) | relative viability ([1]; first compound 0.4 µM) | relative viability ([1]; first compound 1.265 µM) | relative viability ([1]; first compound 4 µM) | relative viability ([2]; first compound 0.08 µM) | relative viability ([2]; first compound 0.8 µM) | relative viability ([2]; first compound 2.53 µM) | relative viability ([2]; first compound 8 µM) | relative viability ([3]; first compound 0.04 µM) | relative viability ([3]; first compound 0.1265 µM) | relative viability ([3]; first compound 0.4 µM) | relative viability ([3]; first compound 1.265 µM) | relative viability ([3]; first compound 4 µM) | relative viability (Tanzisertib + Pemetrexed; first compound 0.08 µM) | relative viability (Tanzisertib + Pemetrexed; first compound 0.253 µM) | relative viability (Tanzisertib + Pemetrexed; first compound 0.8 µM) | relative viability (Tanzisertib + Pemetrexed; first compound 2.53 µM) | relative viability (Tanzisertib + Pemetrexed; first compound 8 µM) |
| --- | --- | --- | --- | --- | --- | --- | --- | --- | --- | --- | --- | --- | --- | --- | --- | --- | --- | --- | --- |
| NCI-H1651 | 1.07 | 1 | 1.11 | 1.26 | 1.11 | 0.897 | 1.07 | 0.963 | 1.16 | 0.509 | 0.567 | 0.554 | 0.601 | 0.567 | 0.586 | 0.625 | 0.436 | 0.6 | 0.513 |
| HCC-15 | 0.712 | 0.689 | 0.738 |  | 0.645 | 0.756 | 0.785 | 0.706 | 0.662 | 0.705 | 0.704 | 0.704 | 0.694 | 0.674 | 0.228 | 0.208 | 0.199 | 0.207 | 0.21 |
| NCI-H23 | 1.06 | 0.963 | 0.986 |  | 0.582 | 0.711 | 0.908 | 1.09 | 0.948 | 0.532 | 0.644 | 0.545 |  | 0.441 | 0.785 | 0.761 | 0.682 | 0.681 | 0.584 |
| NCI-H1792 | 0.668 | 0.592 | 0.644 | 0.415 | 0.567 | 0.611 | 0.679 | 0.639 | 0.589 | 0.685 | 0.698 | 0.699 | 0.771 | 0.627 | 1.2 | 0.694 | 0.876 | 0.763 | 0.625 |
| NCI-H460 | 1.16 | 1.08 | 1.22 | 1.14 | 0.825 | 0.888 | 1.38 | 1.17 | 1.29 | 0.076 | 0.183 | 0.343 | 0.154 | 0.224 | 0.0668 | 0.0601 | 0.0628 | 0.0601 | 0.0429 |
| HCC-366 | 1.04 | 1.15 | 1.16 |  | 0.923 | 1.02 | 1.12 | 1.07 | 1.08 | 0.474 | 0.392 | 0.379 | 0.455 | 0.383 |  | 0.201 | 0.152 | 0.204 | 0.328 |
| NCI-H2085 | 1.23 | 1.14 | 1.19 | 1.09 | 1 | 1.21 | 0.869 | 1.18 | 1.24 | 0.454 | 0.452 | 0.402 | 0.373 | 0.406 |  | 0.934 | 0.942 | 0.841 | 0.765 |
| PC-14 | 0.963 | 1.04 | 0.984 | 0.935 | 0.808 | 0.987 | 1.13 | 1.06 | 0.979 | 0.552 | 0.537 | 0.483 |  | 0.367 | 0.134 | 0.131 | 0.129 | 0.0897 | 0.104 |
| HOP-62 | 1.08 | 0.959 | 1.06 |  | 0.85 | 1.06 | 1.21 | 1.13 | 1.03 | 0.454 | 0.463 | 0.449 | 0.411 | 0.397 | 0.301 | 0.346 | 0.31 | 0.315 | 0.353 |
| NCI-H2087 | 0.911 | 0.917 | 0.903 | 0.903 | 0.855 | 1.04 | 0.973 | 0.969 | 0.903 | 0.24 | 0.263 | 0.299 | 0.254 | 0.28 | 0.702 | 0.661 | 0.668 | 0.691 | 0.706 |
| NCI-H1793 | 0.415 | 0.421 | 0.409 |  | 0.501 | 0.305 | 0.331 | 0.414 | 0.526 | 0.348 | 0.295 | 0.355 |  | 0.385 | 1.07 | 0.914 | 0.976 | 0.766 | 0.828 |
| PC-3 [JPC-3] | 0.833 | 0.866 | 0.907 | 0.897 | 0.798 | 0.835 | 0.905 | 0.818 | 0.786 | 0.544 | 0.516 | 0.53 | 0.551 | 0.575 | 1.16 | 1.3 | 1.23 | 1.04 | 0.466 |
| H3255 | 0.554 | 0.846 | 0.769 | 0.575 | 0.45 | 0.52 | 0.444 | 0.738 | 0.537 | 0.299 | 0.298 | 0.298 | 0.336 | 0.286 | 0.555 | 0.528 | 0.525 | 0.526 | 0.441 |
| EMC-BAC-2 | 1.28 | 1.18 | 1.21 | 1.4 | 0.977 | 1.11 | 1.37 | 1.25 | 1.14 | 0.473 | 0.501 | 0.474 | 0.48 | 0.436 | 0.429 | 0.427 | 0.432 | 0.451 | 0.469 |
| CAL-12T | 1.3 | 1.33 | 1.48 | 1.77 | 1.47 | 1.11 | 1.45 | 1.29 | 1.43 | 0.558 | 0.438 | 0.519 | 0.161 | 0.428 | 1.06 | 1.24 | 1.12 | 1.21 | 1.18 |
| SK-MES-1 | 1.4 | 1.39 | 1.34 | 1.33 | 1.14 | 1.26 | 1.36 | 1.37 | 1.2 | 0.312 | 0.365 | 0.306 | 0.337 | 0.271 | 0.971 | 0.887 | 0.962 | 0.982 | 0.737 |
| NCI-H1355 | 1.01 | 0.986 | 1.04 |  | 0.748 | 0.919 | 0.813 | 1.09 | 0.871 | 0.441 | 0.422 | 0.403 | 0.427 | 0.393 | 1.07 | 1.06 | 1.05 | 1.07 | 1.03 |
